Experimental data reported in patent US5614192A, “T cell receptor peptides as therapeutics for immune-related disease” (Connective Therapeutics, Inc., priority 1993, dated 1997).
Marks after values point to notes of the source that are not given here. Ends that are not written are not given here.

Experiments:
TCR Vβ8(39-59) peptide = type: binding, rat
[1] = system: T cell lines derived from rats protected from EAE; test: Proliferation of LN cells and T cell lines from rats protected by TCR Vβ8 peptide (Table 12); type: cell-based, rat
Gp-S53 = biological target: T1, Gp-S53 (Cavia porcellus, UniProt P25188); test: Direct ELISA, antibody reactivity (Example VII); type: binding, guinea pig
T1 construct: Gp-S53 (residues 75-84); made in house; host or cells: chemical solid-phase synthesis

Gp-(S87-99) = biological target: T2, Gp-(S87-99) (Cavia porcellus, UniProt P25188); test: Direct ELISA, antibody reactivity (Example VII); type: binding, guinea pig
T2 construct: made in house; host or cells: chemical solid-phase synthesis

EAE = test: Clinical EAE in rats treated with TCR Vβ8(39-59) before or after onset (Table 22); type: in vivo
Procedure: The ability of the TCR Vβ8(39-59) given either SC (in adjuvant) or ID (in saline) to disrupt the disease process when given at various times after induction of EAE with GPBP was tested (Table 22). […] In both cases, with both routes of injection of the peptide, there was a significant reduction in the duration of the disease, though not in the severity or time of onset. The efficacy of the peptide given in saline via the ID route is of particular importance to human therapy, as it is preferred to SC injection in adjuvant.
In Experiment 2, the time of ID administration of the TCR peptide was varied, as was the dose. […] A delay in onset of the disease was also observed. Furthermore, the percentage of animals showing signs of the disease decreased. A larger dose of the peptide (200 μg) appeared less efficacious than the lower dose, possibly due to a short-term overload of the peptide which could have comprised the immune response generated against the TCR. Treatment with a similarly sized peptide corresponding to an irrelevant TCR had no effect on onset, severity or incidence of EAE, but may have reduced the duration somewhat (last line of Table 22).

passive EAE [2] = test: Transfer of EAE to naive rats by GPBP-selected T cell lines from treated rats; type: in vivo
DTH response = test: Delayed hypersensitivity responses to TCR peptides, ear swelling (Table 26); type: in vivo, Lewis rats
LNC and T cell lines = test: T cell proliferation after treatment of EAE with TCR Vβ8 39-59/CFA (Table 27); type: cell-based, rats
Procedure: Lymphocyte Proliferation: Activation of T cells was measured by ^3 H-Tdy uptake. 500,000 lymph node cells or 20,000 line cells in the presence of 1 million irradiated thymic accessory cells were incubated with culture medium and antigens in microtiter wells for 18 hours prior to the addition of 0.5 μBq labeled thymidine. The cell cultures were harvested onto glass fiber filters and counted by liquid scintillation techniques. Mean CPM were calculated from triplicate cultures. Standard deviations (SD) from replicate cultures varied <10% from the mean value.
^a Treated rats were injected s.q. with 50 μg TCR Vβ839-59
^b LW cells collected after the untreated group recovered from EAE

DTH (ear thickness) = test: DTH to T cells and TCR peptides after clone transfer or peptide immunization (Table 32); type: in vivo, rats; conditions: 50 μg TCR peptide
Procedure: Transfer of DTH and protection: Delayed type hypersensitivity reactions were measured by the ear swelling assay (Offner et al., J. Neuroimmunol. 9: 147)) 24 and 48 h after injection i.d. of 20 μg antigen.
Rats received 5 million activated clone C45569 or clone C5GpBP

DTH (ear swelling) = test: DTH to Vβ8.2-39-59 and Vβ8-44-54 in Vβ8-44-54/CFA immunized rats (Table 34); type: in vivo; conditions: rats immunized 14 days with Vβ8-44-54/CFA; net
Procedure: Transfer of DTH and protection: Delayed type hypersensitivity reactions were measured by the ear swelling assay (Offner et al., J. Neuroimmunol. 9: 147 (1984)) 24 and 48 h after injection i.d. of 20 μg antigen.
Values represent mean ± S.D. of net ear swelling in 6 immunized rats.

passive EAE [3] = test: Treatment of passively induced EAE with TCR Vβ8 peptides (FIGS. 21A, 22); type: in vivo, rats
[4] = TCR day 0, Gp-S(87-99) d. 44, bleed d. 65, 1:320
[5] = TCR peptide d. 0, Gp-S49S d. 48, bleed d. 74, 1:80
[6] = Exp. 1, 100 μg SC in CFA, day 10
[7] = Exp. 1, 100 μg SC in CFA, day 13

With “DMGHGLRLIHYSYDVNSTEKG [TCR Vβ8(39-59), 21-amino acid CDR2 peptide of rat TCR Vβ8]” the “absorbance of serum on TCR Vβ8(39-59) peptide (A405)” value (TCR Vβ8(39-59) peptide) was 0.63±0.12 units, the “T Cell Proliferation” value ([1]; 1st value column (head not given; LN cells of protected rats)) was 27 cpm × 10^-3 and the “T Cell Proliferation” value ([1]; 2nd value column (head not given, TCR Vβ8(39-59)-selected line)) was 100 cpm × 10^-3. For the same sequence, the “T Cell Proliferation” value ([1]; 4th value column (head not given; mixed TCR- and BP-specific T cells)) was 140 cpm × 10^-3, the “T Cell Proliferation” value ([1]; +OX-6 (anti I-A)) was 99 cpm × 10^-3 and the “T Cell Proliferation” value ([1]; +OX-8 (anti-CD8)) was 22 cpm × 10^-3. For the same sequence, the “T Cell Proliferation” value ([1]; +OX-17 (anti I-E)) was 100 cpm × 10^-3, the “T Cell Proliferation” value ([1]; +OX-18 (anti class 1)) was 31 cpm × 10^-3 and the “T Cell Proliferation” value ([1]; +W3/25 (anti-CD4)) was 105 cpm × 10^-3. The “T Cell Proliferation” value ([1]; GPBP-selected line) was 1 cpm × 10^-3, the “Theoretical Absorbance against Gp-S53 normalized to 1:40” value (Gp-S53; TCR d. 0, Gp-S49S d. 48, bleed d. 74) was 910 Absorbance (×10^3) and the “Antisera Reactivity Against Gp-S53” value (Gp-S53; [4]) was 46 Absorbance (×10^3). The “Antisera Reactivity Against Gp-S53” value (Gp-S53; [5]) was 455 Absorbance (×10^3), the “Theoretical Absorbance against Gp-(S87-99) normalized to 1:40” value (Gp-(S87-99); TCR day 0, Gp-S(87-99) d. 44, bleed d. 65) was 784 Absorbance (×10^3) and the “Antisera Reactivity Against Gp-(S87-99)” value (Gp-(S87-99); [4]) was 348 Absorbance (×10^3). For the same sequence, the “Antisera Reactivity Against Gp-(S87-99)” value (Gp-(S87-99); [5]) was 11 Absorbance (×10^3), the “increase of anti-S87-99 responses” value (Gp-(S87-99); preimmunized with TCR peptide vs not treated) was > 4 fold and the “Day of Onset” value (EAE; Exp. 1, 50 μg ID, day 13) was 13.4 ± 0.5. The “Disease Duration” value (EAE; Exp. 1, 50 μg ID, day 13) was 3.2 ± 0.5, the “Disease Incidence” value (EAE; Exp. 1, 50 μg ID, day 13) was 5/5 and the “Disease Severity” value (EAE; Exp. 1, 50 μg ID, day 13) was 2.6 ± 0.4. The “Day of Onset” value (EAE; [6]) was 14.0 ± 0.4, the “Disease Duration” value (EAE; [6]) was 3.2 ± 0.4 and the “Disease Incidence” value (EAE; [6]) was 5/5. For the same sequence, the “Disease Severity” value (EAE; [6]) was 2.8 ± 0.4, the “Day of Onset” value (EAE; [7]) was 13.0 ± 0 and the “Disease Duration” value (EAE; [7]) was 4.0 ± 0. The “Disease Incidence” value (EAE; [7]) was 5/5, the “Disease Severity” value (EAE; [7]) was 3.0 ± 0 and the “Day of Onset” value (EAE; Exp. 2, 50 μg ID, day 7) was 15.0 ± 0.8. The “Disease Duration” value (EAE; Exp. 2, 50 μg ID, day 7) was 2.0 ± 2.0, the “Disease Incidence” value (EAE; Exp. 2, 50 μg ID, day 7) was 4/6 and the “Disease Severity” value (EAE; Exp. 2, 50 μg ID, day 7) was 1.7 ± 1.4. For the same sequence, the “Day of Onset” value (EAE; Exp. 2, 50 μg ID, day 14) was 16.0 ± 1, the “Disease Duration” value (EAE; Exp. 2, 50 μg ID, day 14) was 2.3 ± 2.0 and the “Disease Incidence” value (EAE; Exp. 2, 50 μg ID, day 14) was 4/6. The “Disease Severity” value (EAE; Exp. 2, 50 μg ID, day 14) was 1.7 ± 1.5, the “Day of Onset” value (EAE; Exp. 2, 50 μg, day 0) was 15.6 ± 2.6 and the “Disease Duration” value (EAE; Exp. 2, 50 μg, day 0) was 2.3 ± 1.6. The “Disease Incidence” value (EAE; Exp. 2, 50 μg, day 0) was 5/6, the “Disease Severity” value (EAE; Exp. 2, 50 μg, day 0) was 1.8 ± 1.0 and the “Day of Onset” value (EAE; Exp. 2, 200 μg ID, day 13) was 14.0 ± 1.4. For the same sequence, the “Disease Duration” value (EAE; Exp. 2, 200 μg ID, day 13) was 3.0 ± 1.2, the “Disease Incidence” value (EAE; Exp. 2, 200 μg ID, day 13) was 6/6 and the “Disease Severity” value (EAE; Exp. 2, 200 μg ID, day 13) was 2.3 ± 0.8. The “Passive EAE Severity” value (passive EAE [2]; 10^7 BP/1st line cells from treated rats) was 0, the “Passive EAE N” value (passive EAE [2]; 10^7 GPBP activated BP/1st line cells from treated rats i.p. into naive rats) was 0/3 and the “Ability to Transfer EAE” value (passive EAE [2]; GPBP-selected T cells of rats given TCR peptide ID day 13) was “YES”. The “48 Hour DTH Response” value (DTH response; GP-BP/CFA immunized rats, ear test Day 12 (EAE onset)) was 11 ± 2, the “48 Hour DTH Response” value (DTH response; Normal or saline/CFA rats, ear test Day 12) was 6 ± 3 and the “48 Hour DTH Response” value (DTH response; TCR Vβ8 peptide/CFA immunized rats, ear test Day 30) was 36 ± 8. For the same sequence, the “48 Hour DTH Response” value (DTH response; TCR Vβ814 (so in the source) peptide/CFA immunized rats, ear test Day 30) was 6 ± 3, the “net proliferation of reactive cells” value (LNC and T cell lines; GP-MBP-selected line from TCR peptide-treated rats) was 49,000 CPM and the “net proliferation of reactive cells” value (LNC and T cell lines; GP-MBP-selected line from untreated EAE-recovered rats) was 9,000 CPM. For the same sequence, the Proliferation (LNC and T cell lines; Treated rats (TCR Vβ8 39-59/CFA at onset), LNC) was 39 ± 4 CPM/1000, the Proliferation (LNC and T cell lines; Treated rats, line BP/1st) was 66 ± 6 CPM/1000 and the Proliferation (LNC and T cell lines; Treated rats, line Vβ8/1st) was 85 ± 2 CPM/1000. It also gave a Proliferation (LNC and T cell lines; Untreated rats (GPBP/CFA only), LNC) of 34 ± 4 CPM/1000, a Proliferation (LNC and T cell lines; Untreated rats, line BP/1st) of 24 ± 3 CPM/1000 and a Proliferation (LNC and T cell lines; Untreated rats, line Vβ8/1st) of 34 ± 2 CPM/1000. For the same sequence, the Proliferation (LNC and T cell lines; Untreated rats, line Vβ14/1st) was 11 ± 1 CPM/1000, the “DTH, change in ear thickness 48 h” value (DTH (ear thickness); Immunization None) was 3 ± 1 and the “DTH, change in ear thickness 48 h” value (DTH (ear thickness); rats given 5 million C5Gp-BP (Vβ8.2+)) was 6 ± 3. For the same sequence, the “DTH, change in ear thickness 48 h” value (DTH (ear thickness); rats given C455-69) was 17 ± 2, the “DTH, change in ear thickness 48 h” value (DTH (ear thickness); rats immunized with Vβ8.239-59 peptide/CFA) was 39 ± 9 and the “DTH, change in ear thickness 48 h” value (DTH (ear thickness); rats immunized with Vβ8.639-59 peptide/CFA) was 27 ± 4. For the same sequence, the “Ear Swelling 24 h” value (DTH (ear swelling)) was 36 ± 8 mm/100, the “Ear Swelling 48 h” value (DTH (ear swelling)) was 41 ± 9 mm/100 and the “severity and duration of passively induced EAE” value (passive EAE [3]; EAE induced by Vβ8.2+ T cell lines specific for BP) was “marked reduction in the severity and duration of EAE”. The “protection from lethal EAE” value (passive EAE [3]; rat, in vivo) was “protected all of the recipients from lethal EAE”.
